Patent US20080063628A1, “METHODS TO PROMOTE CELL DIFFERENTIATION” (priority 2006, published 2008)

Legend:
[1] = system: late passage (P14) pancreatic-derived stromal cell line; assay: Single trichostatin A dose, 144 h follow-up, gene expression by RT-PCR (Example 6); assay type: cell-based, human; details: 1.25 μM once at 0 h
Description: Several cell lines obtained from different amniotic fluid specimens (see Example 14) and pancreas donors (see Example 13) were tested with similar results. Two lines at similar passage number but derived from different amniotic fluid specimens are shown in Table VI-A and Table VI-B for this example. One of these cell lines was also used in examples 2 and 4 above. In addition, this example also contains comparison data in Table VI-C and Table VI-D for a single pancreatic-derived stromal line grown to early and late passage number.
Amniotic fluid derived cells or pancreatic-derived stromal cells were seeded into 24-well tissue culture plates at a density of 5000/cm^2 and cultured in AMNIOMAX (Invitrogen) or DMEM with 10% FBS, respectively, under standard cell culture conditions until confluent. After the cells reached confluency, amniotic fluid derived cells were treated once at time 0 hours with 500 nM trichostatin A. Pancreas-derived stromal cells were treated once at time 0 hours with 1.25 μM trichostatin A. Samples for RT-PCR were taken daily from zero to six days at the times indicated in Table VI.
RNA samples were obtained from the treated cultures up to 144 hours after the initial addition of trichostatin A or DMSO. Culture media was removed, the cells were washed with PBS, and RLT lysis buffer containing β-mercaptoethanol (Qiagen) was added. During culture, the medium was not changed nor was freshly prepared trichostatin A added. RNA was purified using the RNeasy Mini Kit (Qiagen), and RNA quantity and quality was determined using a spectrophotometer. cDNA was made using the iScript cDNA synthesis kit (BioRad).
Samples of 20 ng cDNA were used in each reaction to determine the expression levels of the following genes in amniotic fluid-derived cells: Gata1, HNF-3 beta, Pdx-1, insulin, and Sox17. Similarly, samples of 20 ng cDNA were used in each reaction to determine the expression level of the following genes in pancreatic-derived stromal cells: glucagon, HNF-3 beta, insulin and Pdx-1. Real-Time PCR was performed on the Applied Biosystems 7500, and data was analyzed using the accompanying software according to the methods described in Example 15.
(§1) Real-time PCR amplifcation and quantitative analysis. Unless otherwise stated, all reagents were purchased from Applied Biosystems. Real-time PCR reactions were performed using the ABI PRISM™ 7500 Sequence Detection System. TAQMAN™ FAST UNIVERSAL PCR MASTER MIX™ (ABI, CA) was used with 20 ng of reverse transcribed RNA in a total reaction volume of 20 μl. Each cDNA sample was run in duplicate to allow correction of pipetting errors. Primers and FAM-labeled TAQMAN™ probes were used at concentrations of 200 nM. The level of expression for each target gene was normalized using the pre-developed Applied Biosystem's human glyceraldehyde-3-phosphate dehydrogenase (GAPDH) endogenous control kit. Primers and probes were designed using either ABI PRISM PRIMER EXPRESS™ software or a pre-developed ABI gene analysis kit. For each gene, either one of the primers or the probe were designed to be exon-boundary spanning. This eliminated the possibility of the primers/probe binding to any genomic DNA present. The primer and probe sets are listed as follows: Pdx-1 (Hs00426216), Insulin (Hs00355773), glucagon (Hs00174967), and FoxA2 (HNF 3-beta) (Hs00232764). The remaining primers were designed using the PRIMERS program (ABI, CA). After an initial 95° C. incubation for 20 sec, samples were cycled 40 times in two stages: a denaturation step at 95° C. for 3 sec, followed by an annealing/extension step at 60° C. for 30 sec.
(§2) For each primer/probe set, a cycle time value was determined as the cycle number at which the fluorescence intensity of the PCR reaction reached a specific value in the middle of the exponential region of amplification. An increase in expression of a gene corresponded to a decrease in the number of cycles required for the fluorescence intensity to reach this value.

[2] = system: late passage pancreatic-derived stromal cells; assay: Chronic trichostatin A treatment, gene expression by RT-PCR (Example 5); assay type: cell-based, human
Description: Pancreatic-derived stromal cells were obtained according to the methods described in Example 13. Cells were seeded into a 24-well tissue culture plate at a density of 5000/cm^2 and cultured in DMEM with 10% FBS under standard cell culture conditions until confluent. After the cells reached confluency, sample wells were treated with either 1.25 μM or 2.5 μM trichostatin A diluted in DMSO and medium; control wells received DMSO at an equivalent concentration. At 24 hour intervals over the three day culture period, cultures underwent a complete medium change, and a fresh dilution of trichostatin A or DMSO was added as appropriate. RNA samples were obtained from treated cultures daily after the initial addition of trichostatin A or DMSO. Culture medium was removed, cells were washed with PBS, and RLT lysis buffer with β-mercaptoethanol (Qiagen) was added. RNA was purified using the RNeasy Mini Kit (Qiagen), and RNA quantity and quality was determined using a spectrophotometer. cDNA was made using the iScript cDNA synthesis kit (BioRad).
Expression levels of Sox17, HNF-3 beta, Pdx-1, insulin, and glucagon were determined by RT-PCR. Samples of 20 ng cDNA were used in each reaction, which was performed on the Applied Biosystems 7500, according to the methods described in Example 15. Data were analyzed using the accompanying software. Human pancreas cDNA was included as a control. Results were normalized against GAPDH expression levels.
as §1, §2

[3] = 1.25 μM renewed daily, 24 hours
[4] = 1.25 μM renewed daily, 48 hours
[5] = 1.25 μM renewed daily, 72 hours

In the case of CC(/C=C/C(=O)NO)=C\[C@@H](C)C(=O)c1ccc(N(C)C)cc1 [trichostatin A], the “HNF (HNF-3 beta) gene expression” value ([1]; 24 hrs) is reported as “+ (detectable between 35 and 40 cycles RT-PCR)”, the Insulin gene expression ([1]; 24 hrs) is reported as “nd (not detectable at >40 cycles by RT-PCR)” and the Pdx-1 gene expression ([1]; 24 hrs) is reported as “+++ (detectable at less than 35 cycles RT-PCR with SE less than 0.9)”. The glucagon gene expression ([1]; 24 hrs) was “+++ (detectable at less than 35 cycles RT-PCR with SE less than 0.9)”, the “HNF (HNF-3 beta) gene expression” value ([1]; 48 hrs) was “nd (not detectable at >40 cycles by RT-PCR)” and the Insulin gene expression ([1]; 48 hrs) was “nd (not detectable at >40 cycles by RT-PCR)”. For the same compound, the Pdx-1 gene expression ([1]; 48 hrs) was “nd (not detectable at >40 cycles by RT-PCR)”, the glucagon gene expression ([1]; 48 hrs) was “+ (detectable between 35 and 40 cycles RT-PCR)” and the “HNF (HNF-3 beta) gene expression” value ([1]; 72 hrs) was “nd (not detectable at >40 cycles by RT-PCR)”. For the same compound, the Insulin gene expression ([1]; 72 hrs) was “nd (not detectable at >40 cycles by RT-PCR)”, the Pdx-1 gene expression ([1]; 72 hrs) was “nd (not detectable at >40 cycles by RT-PCR)” and the glucagon gene expression ([1]; 72 hrs) was “nd (not detectable at >40 cycles by RT-PCR)”. For the same compound, the “HNF (HNF-3 beta) gene expression” value ([1]; 96 hrs) was “nd (not detectable at >40 cycles by RT-PCR)”, the Insulin gene expression ([1]; 96 hrs) was “nd (not detectable at >40 cycles by RT-PCR)” and the Pdx-1 gene expression ([1]; 96 hrs) was “nd (not detectable at >40 cycles by RT-PCR)”. The glucagon gene expression ([1]; 96 hrs) was “nd (not detectable at >40 cycles by RT-PCR)”, the “HNF (HNF-3 beta) gene expression” value ([1]; 120 hrs) was “nd (not detectable at >40 cycles by RT-PCR)” and the Insulin gene expression ([1]; 120 hrs) was “nd (not detectable at >40 cycles by RT-PCR)”. The Pdx-1 gene expression ([1]; 120 hrs) was “nd (not detectable at >40 cycles by RT-PCR)”, the glucagon gene expression ([1]; 120 hrs) was “nd (not detectable at >40 cycles by RT-PCR)” and the “HNF (HNF-3 beta) gene expression” value ([1]; 144 hrs) was “nd (not detectable at >40 cycles by RT-PCR)”. The Insulin gene expression ([1]; 144 hrs) was “nd (not detectable at >40 cycles by RT-PCR)”, the Pdx-1 gene expression ([1]; 144 hrs) was “nd (not detectable at >40 cycles by RT-PCR)” and the glucagon gene expression ([1]; 144 hrs) was “nd (not detectable at >40 cycles by RT-PCR)”. The HNF-3 beta gene expression [2, 3] was “+++ (detectable at less than 35 cycles by RT-PCR with std error less than 0.9)”, the Insulin gene expression [2, 3] was “nd (not detectable at >40 cycles by RT-PCR)” and the PDX-1 gene expression [2, 3] was “+ (detectable between 35 and 40 cycles by RT-PCR)”. For the same compound, the Sox17 gene expression [2, 3] was “+++ (detectable at less than 35 cycles by RT-PCR with std error less than 0.9)”, the glucagon gene expression [2, 3] was “+ (detectable between 35 and 40 cycles by RT-PCR)” and the HNF-3b gene expression [2, 4] was “++ (detectable at less than 35 cycles by RT-PCR with std error greater than 0.9)”. The Insulin gene expression [2, 4] was “nd (not detectable at >40 cycles by RT-PCR)”, the PDX-1 gene expression [2, 4] was “+++ (detectable at less than 35 cycles by RT-PCR with std error less than 0.9)” and the Sox17 gene expression [2, 4] was “+++ (detectable at less than 35 cycles by RT-PCR with std error less than 0.9)”. For the same compound, the glucagon gene expression [2, 4] was “+ (detectable between 35 and 40 cycles by RT-PCR)”, the HNF-3b gene expression [2, 5] was “+++ (detectable at less than 35 cycles by RT-PCR with std error less than 0.9)” and the Insulin gene expression [2, 5] was “nd (not detectable at >40 cycles by RT-PCR)”. The PDX-1 gene expression [2, 5] was “+++ (detectable at less than 35 cycles by RT-PCR with std error less than 0.9)”, the Sox17 gene expression [2, 5] was “+++ (detectable at less than 35 cycles by RT-PCR with std error less than 0.9)” and the glucagon gene expression [2, 5] was “+ (detectable between 35 and 40 cycles by RT-PCR)”. For the same compound, the HNF-3 beta gene expression ([2]; 2.5 μM renewed daily, 24 hours) was “+ (detectable between 35 and 40 cycles by RT-PCR)”, the Insulin gene expression ([2]; 2.5 μM renewed daily, 24 hours) was “nd (not detectable at >40 cycles by RT-PCR)” and the PDX-1 gene expression ([2]; 2.5 μM renewed daily, 24 hours) was “+++ (detectable at less than 35 cycles by RT-PCR with std error less than 0.9)”. For the same compound, the Sox17 gene expression ([2]; 2.5 μM renewed daily, 24 hours) was “+++ (detectable at less than 35 cycles by RT-PCR with std error less than 0.9)”, the glucagon gene expression ([2]; 2.5 μM renewed daily, 24 hours) was “nd (not detectable at >40 cycles by RT-PCR)” and the HNF-3b gene expression ([2]; 2.5 μM renewed daily, 48 hours) was “+ (detectable between 35 and 40 cycles by RT-PCR)”. The Insulin gene expression ([2]; 2.5 μM renewed daily, 48 hours) was “nd (not detectable at >40 cycles by RT-PCR)”, the PDX-1 gene expression ([2]; 2.5 μM renewed daily, 48 hours) was “+++ (detectable at less than 35 cycles by RT-PCR with std error less than 0.9)” and the Sox17 gene expression ([2]; 2.5 μM renewed daily, 48 hours) was “+++ (detectable at less than 35 cycles by RT-PCR with std error less than 0.9)”. The glucagon gene expression ([2]; 2.5 μM renewed daily, 48 hours) was “+ (detectable between 35 and 40 cycles by RT-PCR)”, the HNF-3b gene expression ([2]; 2.5 μM renewed daily, 72 hours) was “+++ (detectable at less than 35 cycles by RT-PCR with std error less than 0.9)” and the Insulin gene expression ([2]; 2.5 μM renewed daily, 72 hours) was “nd (not detectable at >40 cycles by RT-PCR)”. The PDX-1 gene expression ([2]; 2.5 μM renewed daily, 72 hours) was “+ (detectable between 35 and 40 cycles by RT-PCR)”, the Sox17 gene expression ([2]; 2.5 μM renewed daily, 72 hours) was “+++ (detectable at less than 35 cycles by RT-PCR with std error less than 0.9)” and the glucagon gene expression ([2]; 2.5 μM renewed daily, 72 hours) was “nd (not detectable at >40 cycles by RT-PCR)”.
